Consider 8 molecules from paper PMC6830296 (Journal of Enzyme Inhibition and Medicinal Chemistry, 2019).

Read-outs that look alike come from different tables or passages of the source.

Test [1] has as its target T1, VChβ (Vibrio cholerae, UniProt Q9KUD6).
T1 construct: gene VC_0586
Nature of the test: biochemical.

A further test has as its target T2, LdcCA (Leishmania infantum, UniProt A4HSV2).
T2 construct: gene LINJ_06_0630
T2 sequence (A4HSV2 1-306): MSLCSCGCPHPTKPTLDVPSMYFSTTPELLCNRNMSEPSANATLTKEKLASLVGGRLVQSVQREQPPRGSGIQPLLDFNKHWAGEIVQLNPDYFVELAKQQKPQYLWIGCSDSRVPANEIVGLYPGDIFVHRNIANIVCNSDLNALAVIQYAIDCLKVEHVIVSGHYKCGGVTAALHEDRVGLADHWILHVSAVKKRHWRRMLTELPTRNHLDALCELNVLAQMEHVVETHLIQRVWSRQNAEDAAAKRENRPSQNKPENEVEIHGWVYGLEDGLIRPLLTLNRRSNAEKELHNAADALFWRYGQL
The settings on record: read-out: KI (μM)^a / LdcCA; CO2 hydration, TRIS pH 8.3, 20 mM Na2SO4, 1 h preincubation at room temperature.

In a further test the target is T3, BpsCAβ (Burkholderia pseudomallei, UniProt Q63Y17).
T3 construct: gene BPSL0372
The test is classed as biochemical. The settings on record: read-out: KI (μM)^a / BpsCAβ.

In test [2] the target is T4, CgNce (Nakaseomyces glabratus, UniProt Q6FTL6).
T4 construct: gene NCE103
Nature of the test: biochemical.

The target of the next test is T5, Can2 (Cryptococcus neoformans, UniProt Q3I4V7).
T5 construct: recombinant, obtained in-house
T5 sequence (Q3I4V7 1-239): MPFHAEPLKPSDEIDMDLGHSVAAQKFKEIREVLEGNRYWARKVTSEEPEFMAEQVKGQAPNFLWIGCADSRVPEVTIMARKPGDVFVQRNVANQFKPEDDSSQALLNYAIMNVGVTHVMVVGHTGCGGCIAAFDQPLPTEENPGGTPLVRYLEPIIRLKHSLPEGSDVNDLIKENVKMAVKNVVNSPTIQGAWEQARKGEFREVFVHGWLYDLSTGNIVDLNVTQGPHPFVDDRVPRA
Format: biochemical.

In the next test the target is T6, MgCA (Malassezia globosa, UniProt A8Q1N3).
T6 construct: gene MGL_1814
T6 sequence (A8Q1N3 1-241): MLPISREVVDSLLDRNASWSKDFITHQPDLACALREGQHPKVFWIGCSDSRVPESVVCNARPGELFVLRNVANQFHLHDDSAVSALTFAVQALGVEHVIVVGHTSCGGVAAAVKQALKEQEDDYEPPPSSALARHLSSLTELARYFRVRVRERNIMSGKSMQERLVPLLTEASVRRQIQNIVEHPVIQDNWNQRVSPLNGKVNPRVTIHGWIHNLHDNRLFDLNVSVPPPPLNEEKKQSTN
Nature of the test: biochemical.

A further test has as its target T7, FtuβCA (Francisella tularensis, UniProt Q5NH77).
T7 construct: gene cynT
Format: biochemical. The settings on record: read-out: KI (μM)^a / FtuβCA.

Test [3] has as its target T1, VChβ. The settings on record: read-out: KI (μM)^a / VChβ; CO2 hydration, TRIS pH 8.3, 20 mM Na2SO4, 1 h preincubation at room temperature.
In test [4] the target is T4, CgNce. The following applies: read-out: KI (μM)^a / CgNce; CO2 hydration, TRIS pH 8.3, 20 mM Na2SO4, 1 h preincubation at room temperature.

T4 sequence (Q6FTL6 entry or part of it): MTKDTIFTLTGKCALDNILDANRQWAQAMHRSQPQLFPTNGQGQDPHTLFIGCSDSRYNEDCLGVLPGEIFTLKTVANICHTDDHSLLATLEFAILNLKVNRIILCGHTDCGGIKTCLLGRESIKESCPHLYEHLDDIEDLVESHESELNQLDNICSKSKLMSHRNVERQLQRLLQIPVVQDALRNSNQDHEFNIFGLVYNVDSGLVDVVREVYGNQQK
T1 sequence (Q9KUD6 1-222): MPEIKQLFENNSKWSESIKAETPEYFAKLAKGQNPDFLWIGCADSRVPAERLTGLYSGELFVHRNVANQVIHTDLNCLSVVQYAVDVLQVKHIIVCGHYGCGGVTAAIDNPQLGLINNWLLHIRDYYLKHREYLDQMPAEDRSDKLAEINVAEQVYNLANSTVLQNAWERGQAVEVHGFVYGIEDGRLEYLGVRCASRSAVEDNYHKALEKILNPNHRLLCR
T3 sequence (Q63Y17 1-256): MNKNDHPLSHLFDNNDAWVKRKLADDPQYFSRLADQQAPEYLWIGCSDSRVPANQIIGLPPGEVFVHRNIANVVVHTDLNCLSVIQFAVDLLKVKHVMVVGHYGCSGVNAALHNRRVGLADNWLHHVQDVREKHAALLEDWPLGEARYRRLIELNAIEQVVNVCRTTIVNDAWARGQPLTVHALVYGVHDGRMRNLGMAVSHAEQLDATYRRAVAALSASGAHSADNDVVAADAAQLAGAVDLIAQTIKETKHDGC
T7 sequence (Q5NH77 1-228): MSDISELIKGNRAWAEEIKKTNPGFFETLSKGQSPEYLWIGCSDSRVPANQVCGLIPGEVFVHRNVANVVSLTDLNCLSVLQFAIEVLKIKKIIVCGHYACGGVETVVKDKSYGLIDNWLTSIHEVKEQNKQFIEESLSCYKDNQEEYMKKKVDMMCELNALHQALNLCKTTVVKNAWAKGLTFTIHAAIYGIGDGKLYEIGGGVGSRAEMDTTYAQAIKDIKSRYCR

Consider `CCOP(N)(=O)c1ccccc1` (centres unmarked) [compound 4, ethyl derivative 4], for which the Ki at VChβ [1] was 9.5 µM; on LdcCA it was 3.5 µM; at BpsCAβ, 4.6 µM; at CgNce [2], 0.8 µM; at Can2 (read-out: KI (μM)^a / Can2), 0.05 µM.
In the case of `C#CCOP(N)(=O)c1ccccc1` (centres unmarked) [compound 10, propargyl phosphonamidate 10], the Ki is 20.9 µM on VChβ [1]; 97.4 µM on MgCA; 6.9 µM at FtuβCA; 19.3 µM at LdcCA; 18.9 µM on BpsCAβ; 20.2 µM at CgNce [2]. Also, at Can2 (read-out: KI (μM)^a / Can2), the Ki worked out at 5.3 µM.
As to `NP(N)(=O)c1ccccc1` [compound 2, phenylphosphonic diamide 2], the Ki on VChβ [3] amounted to 0.9 µM; on CgNce [4] it was 0.05 µM; at FtuβCA, 10.3 µM; at LdcCA, 2.1 µM; on BpsCAβ, 2.5 µM; on Can2 (CO2 hydration, TRIS pH 8.3, 20 mM Na2SO4, 1 h preincubation at room temperature, read-out: KI (μM)^a / Can2) it was 0.03 µM.
In the case of `CCCCOP(N)(=O)c1ccccc1` (centres unmarked) [compound 7, alkyl phosphonamidate 7], the Ki at VChβ [1] came out at 26.8 µM; at FtuβCA, 42 µM; on BpsCAβ, 22.5 µM; on CgNce [2], 5.3 µM; at Can2 (read-out: KI (μM)^a / Can2), 2.2 µM.
`COP(N)(=O)c1ccccc1` (centres unmarked) [compound 3, methyl phosphonamidate 3]: the Ki was 0.5 µM on VChβ [1]; 8.5 µM on FtuβCA; 0.8 µM on LdcCA; 2.1 µM on BpsCAβ; 0.2 µM on CgNce [2]; 0.02 µM at Can2 (read-out: KI (μM)^a / Can2).
On to `NP(=O)(OCCCl)c1ccccc1` (centres unmarked) [compound 9, alkyl phosphonamidate 9], for which the Ki at VChβ [1] is 34.7 µM; at FtuβCA, 15.1 µM; on BpsCAβ, 32.7 µM; at CgNce [2], 1.8 µM; on Can2, 0.6 µM.
In the case of `CC(C)OP(N)(=O)c1ccccc1` (centres unmarked) [compound 6, isopropyl (6)], the Ki on VChβ [1] worked out at 7.3 µM; at FtuβCA it was 18.4 µM; on LdcCA, 5.1 µM; at BpsCAβ, 5.8 µM; on CgNce [2], 0.7 µM; at Can2 (read-out: KI (μM)^a / Can2), 0.1 µM.
For `CCCOP(N)(=O)c1ccccc1` (centres unmarked) [compound 5, propyl (5)], the Ki amounted to 15.4 µM on VChβ [1]; 79 µM on MgCA; 35.6 µM at FtuβCA; 6.8 µM on LdcCA; 12.6 µM on BpsCAβ; 1.3 µM on CgNce [2]. The Ki at Can2 (read-out: KI (μM)^a / Can2) came to 0.9 µM.
